Test results taken from US9504685B2, “Method for treating a pulmonary hypertension condition” (Gilead Sciences, Inc., priority 2006, dated 2016).
Where two headings read alike, the source gives them in different places.

Assays:
[1] = test system: subjects with PAH; assay: Example 1 (ARIES-2) Phase III trial, disposition, safety and tolerability; assay type: in vivo; conditions: for Subjects who died: 12 weeks
Protocol: Change from Week 0 to Week 12 was determined.

[2] = test system: subjects with PAH; conditions: for Subjects who died: 12 weeks
Protocol: All adverse effects (AEs) reported during the course of the study were reported and summaries of all AEs were prepared showing frequencies and percentages of: • (a) subjects with at least 1 AE; • (b) subjects with possibly or probably drug-related AEs; • (c) subjects with at least 1 serious AE (SAE); • (d) subjects with an AE leading to study discontinuation; and • (e) subjects who died. […]
The safety population was defined as all randomized subjects who received at least 1 dose of study drug. Subjects were considered as belonging to a treatment group according to the highest actual treatment dose received. Any subject who received 10 mg ambrisentan on any day was included in the 10 mg group for safety analyses in the entire study. Any subject who received 5 mg ambrisentan on any day and never received 10 mg ambrisentan on any day was included in the 5 mg group for safety analyses in the entire study. Otherwise, any subject who received only placebo was included in the placebo group for safety analyses in the study.

[3] = male subjects, 2.5 mg once daily
[4] = male subjects, 10 mg once daily

In the case of `COC(c1ccccc1)(c1ccccc1)[C@H](Oc1nc(C)cc(C)n1)C(=O)O` [ambrisentan], the “subjects who died during the study or within 30 days of the last dose” value ([1]; 2.5 mg once daily) is reported as 3.1%, the Subjects who died ([1]; 2.5 mg once daily) is reported as 2 (3.1) subjects (% of safety populati and the “subjects who died during the 12-week study” value ([1]; 5 mg once daily) is reported as “No subjects”. The Subjects who died ([1]; 5 mg once daily) was 0 (0.0) subjects (% of safety populati, the Subjects who died ([1]; combined 2.5 mg and 5 mg groups) was 2 (1.6) subjects (% of safety populati and the “male fertility hormones and serial semen samples” value ([1]; in vivo) was “did not suggest that ambrisentan was associated with an adverse effect on male reproductive potential”. The “mean changes from baseline at Week 12 for serum ALT and AST” value ([1]; in vivo) was “no notable mean changes”, the “mean total bilirubin and mean alkaline phosphatase” value ([1]; in vivo) was “notable decrease” and the “subjects who developed elevated serum aminotransferase concentrations >3.0×ULN” value ([1]; in vivo) was “None”. The “change in testosterone concentration over the 12-week study” value [1, 3] was -0.09 ± 4.595 nmol/L, the “change over baseline in FSH concentration at Week 12” value [1, 3] was “+0.58 IU/liter” and the “change in testosterone concentration over the 12-week study” value ([1]; male subjects, 5 mg once daily) was -2.61 ± 6.962 nmol/L. For the same compound, the “subjects who died during the study or within 30 days of the last dose” value ([2]; 5 mg once daily) was 1.5%, the Subjects who died ([2]; 5 mg once daily) was 1 (1.5) subjects (% of safety populati and the “subjects who died during the study or within 30 days of the last dose” value ([2]; 10 mg once daily) was 1.5%. For the same compound, the Subjects who died ([2]; 10 mg once daily) was 1 (1.5) subjects (% of safety populati, the Subjects who died ([2]; combined 5 mg and 10 mg groups) was 2 (1.5) subjects (% of safety populati and the “effect on PT, INR or weekly warfarin-type anticoagulant dose” value ([2]; in vivo) was “no effect”. The “male fertility hormones and serial semen samples” value ([2]; in vivo) was “did not suggest that ambrisentan was associated with an adverse effect on male reproductive potential”, the “mean changes from baseline at Week 12 for serum ALT and AST” value ([2]; in vivo) was “no notable mean changes” and the “subjects who developed elevated serum aminotransferase concentrations >3×ULN” value ([2]; in vivo) was “None”. The “change from baseline in testosterone concentration at Week 12” value ([2]; male subjects, 5 mg once daily) was -0.099 ± 3.48 nmol/L, the “change from baseline in testosterone concentration at Week 12” value [2, 4] was -0.099 ± 3.48 nmol/L and the “change over baseline in FSH concentration at Week 12” value [2, 4] was “+1.83 IU/liter”.
